Experimental data: patent publication US4661602A, “Substituted alkyl imidazole derivatives” (G. D. Searle & Co., priority 1985, dated 1987)
≈ marks a conversion by molar mass, not a printed value. Where a name gives a salt, the structure may show the parent alone. Read-outs that look alike come from different tables or passages of the source.

How the values were obtained:
[1] = system: B. Fragilis NCTC 10581; assay: Anti-anaerobic activity, strain A (microtitre plate MIC/MBC); type: cell-based, Bacteroides fragilis
[2] = system: B. Fragilis NCTC 9343; assay: Anti-anaerobic activity, strain B (microtitre plate MIC/MBC); type: cell-based, Bacteroides fragilis; conditions: for MIC: 48 hours, 37° C., anaerobic chamber, lowest concentration with no detectable growth
[3] = system: B. Fragilis NCTC 9344; assay: Anti-anaerobic activity, strain C (microtitre plate MIC/MBC); type: cell-based; conditions: Bacteroides fragilis, NCTC9344, 48 h
[4] = system: B. Fragilis ATCC 11295; assay: Anti-anaerobic activity, strain D (microtitre plate MIC/MBC); type: cell-based; conditions: Bacteroides fragilis, ATCC11295, 48 h; for MIC: 48 hours, 37° C., anaerobic chamber, lowest concentration with no detectable growth
[5] = system: B. Fragilis WS-1; assay: Anti-anaerobic activity, strain E (microtitre plate MIC/MBC); type: cell-based; conditions: Bacteroides fragilis, 48 h
[6] = system: Clostridium perfringens NCTC 523; assay: microbe, parasite or virus in culture; type: cell-based; conditions: NCTC523
[7] = system: Cl. perfringens NCTC 8237; assay: microbe, parasite or virus in culture; type: cell-based; conditions: Clostridium perfringens, NCTC8237
[8] = system: Campl. fetus ATCC 29428; assay: Anti-anaerobic activity, additional strains; type: cell-based; conditions: Campylobacter fetus, ATCC29428
[9] = system: Fuso. necrophorum ATCC 11295; assay: Anti-anaerobic activity, additional strains; type: cell-based; conditions: Fusobacterium necrophorum, ATCC11295
[10] = system: Peptococc. magnus ATCC 29328; assay: Anti-anaerobic activity, additional strains; type: cell-based
[11] = system: P. prevotti ATCC 9321; assay: Anti-anaerobic activity, additional strains; type: cell-based; conditions: P. prevotti ATCC 9321
[12] = system: Peptostrepto anaerobicus ATCC 27337; assay: Anti-anaerobic activity, additional strains; type: cell-based; conditions: Peptostrepto anaerobicus ATCC 27337
[13] = system: Propionibacterium acnes NCTC 737; assay: Anti-anaerobic activity, additional strains; type: cell-based; conditions: Cutibacterium acnes, NCTC737
[14] = system: P. acnes NCTC 7337; assay: Anti-anaerobic activity, additional strains; type: cell-based, Propionibacterium acnes; conditions: Cutibacterium acnes, NCTC7337
[15] = system: Trichomonas vaginalis; assay: MIC against Trichomonas vaginalis (Diamonds Medium); type: cell-based; conditions: Diamonds Medium, lowest concentration at which no mobile organisms are viable microscopically, read-out: MIC
[16] = Bacteroides fragilis, NCTC10581, 48 h, strain A, 48 hours, 37° C., anaerobic chamber, lowest concentration with no detectable growth, read-out: MIC
[17] = Bacteroides fragilis, NCTC10581, 48 h, strain A, less than 5 colonies (99.9% reduction in viable count) after 48 hours, read-out: MBC
[18] = Bacteroides fragilis, NCTC9343, 48 h, strain B, read-out: MIC
[19] = Bacteroides fragilis, NCTC9343, 48 h, strain B, less than 5 colonies (99.9% reduction in viable count) after 48 hours, read-out: MBC
[20] = strain C, 48 hours, 37° C., anaerobic chamber, lowest concentration with no detectable growth, read-out: MIC
[21] = strain C, less than 5 colonies (99.9% reduction in viable count) after 48 hours, read-out: MBC
[22] = strain D, less than 5 colonies (99.9% reduction in viable count) after 48 hours, read-out: MBC
[23] = strain E, less than 5 colonies (99.9% reduction in viable count) after 48 hours, read-out: MBC
[24] = strain E, 48 hours, 37° C., anaerobic chamber, lowest concentration with no detectable growth, read-out: MIC
[25] = Bacteroides fragilis, NCTC10581, 48 h

## CC1=NCCN1CC(C1=NCCN1c1ccc(Cl)cc1Cl)c1ccccc1 (stereo not drawn) [Example 23, 1-(2,4-Dichlorophenyl)-4,5-dihydro-2-[2-(4,5-dihydro-2-methylimidazol-1-yl)-1-phenylethyl]imidazole dihydrochloride]
[1]; [16]
  MIC: 1.5 µg/mL
[1]; [17]
  MBC: 1.5 µg/mL
[2]; [18]
  MIC: 1.5 µg/mL
[2]; [19]
  MBC: 3.1 µg/mL
[3]; [20]
  MIC: 1.5 µg/mL
[3]; [21]
  MBC: 1.5 µg/mL
[4]; strain D
  MIC: 1.5 µg/mL
[4]; [22]
  MBC: 1.5 µg/mL
[5]; [23]
  MBC: 1.5 µg/mL

## CSc1nccn1CC(C1=NCCN1c1ccc(Cl)cc1Cl)c1ccccc1 (stereo not drawn) [Example 22, 1-(2,4-Dichlorophenyl)-4,5-dihydro-2-[1-phenyl-2-(2-thiomethylimidazol-1-yl)ethyl]imidazole dihydrochloride]
[1]; [16]
  MIC: 6.2 µg/mL
[1]; [17]
  MBC: 6.2 µg/mL
[2]; [18]
  MIC: 1.5 µg/mL
[2]; [19]
  MBC: 1.5 µg/mL
[3]; [21]
  MBC: 3.1 µg/mL
[4]; [22]
  MBC: 3.1 µg/mL
[5]; [23]
  MBC: 3.1 µg/mL

## CCCCCCN1CCN=C1C(Cn1ccnc1)c1ccccc1.Cl (stereo not drawn) [Example 25, 4,5-Dihydro-1-n-hexyl-2-[2-(imidazol-1-yl)-1-phenylethyl]imidazole hydrochloride]
[1]; [16]
  MIC: 25 µg/mL
[2]; [18]
  MIC: 100 µg/mL
[3]; [20]
  MIC: 100 µg/mL
[4]; strain D
  MIC: 100 µg/mL
[5]; [24]
  MIC: 100 µg/mL

## Clc1ccc(N2CCN=C2C(CCn2ccnc2)c2ccccc2)c(Cl)c1 (stereo not drawn) [Example 27, 1-(2,4-Dichlorophenyl)-4,5-dihydro-2-[3-(imidazol-1-yl)-1-phenylpropyl]imidazole]
[1]; [16]
  MIC: 100 µg/mL (≈ 250 µM)
[2]; [18]
  MIC: 100 µg/mL (≈ 250 µM)
[3]; [20]
  MIC: 100 µg/mL (≈ 250 µM)
[4]; strain D
  MIC: 100 µg/mL (≈ 250 µM)
[5]; [24]
  MIC: 12.5 µg/mL (≈ 31.3 µM)

## Brc1ccc(N2CCN=C2C(Cn2ccnc2)c2ccccc2)c(Br)c1 (stereo not drawn) [Example 2, 1-(2,4-Dibromophenyl)-4,5-dihydro-2-[2-imidazol-1-yl)-1-phenylethyl]imidazole dihydrochloride]
[1]; [17]
  MBC: 3.1 µg/mL
[2]; [19]
  MBC: 12.5 µg/mL
[3]; [20]
  MIC: 1.5 µg/mL
[3]; [21]
  MBC: 50 µg/mL
[4]; strain D
  MIC: 1.5 µg/mL
[4]; [22]
  MBC: 12.5 µg/mL
[5]; [23]
  MBC: 2.5 µg/mL

## CCCCCCCCCCN1CCN=C1C(Cn1ccnc1)c1ccccc1.Cl.Cl (stereo not drawn) [Example 26, 1-n-Decyl-4,5-dihydro-2-[2-(imidazol-1-yl)-1-phenylethyl]imidazole dihydrochloride]
[1]; [16]
  MIC: 2.1 µg/mL
[1]; [17]
  MBC: 3.1 µg/mL
[3]; [21]
  MBC: 3.1 µg/mL
[4]; [22]
  MBC: 50 µg/mL
[5]; [23]
  MBC: 3.1 µg/mL

## Clc1ccc(CN2CCN=C2C(Cn2ccnc2)c2ccccc2)c(Cl)c1 (stereo not drawn) [Example 15, 1-(2,4-Dichlorophenylmethyl)-4,5-dihydro-2-[2-(imidazol-1-yl)-1-phenylethyl]imidazole]
[5]; [24]
  MIC: 6.2 µg/mL (≈ 15.5 µM)

## FC(F)(F)c1cccc(N2CCN=C2C(Cn2ccnc2)c2ccccc2)c1 (stereo not drawn) [Example 4, 4,5-Dihydro-2-[2-(imidazol-1-yl)-1-phenylethyl]-1-(3-trifluoromethylphenyl)imidazole hydrochloride]
[1]; [16]
  MIC: 6.2 µg/mL
[2]; [18]
  MIC: 12.5 µg/mL
[3]; [20]
  MIC: 12.5 µg/mL
[4]; strain D
  MIC: 12.5 µg/mL
[5]; [24]
  MIC: 12.5 µg/mL

## Cc1ncc([N+](=O)[O-])n1CCO [Metronidazole, reference compound]
[1]; [25]
  MBC: 1.2 µg/mL (≈ 7.01 µM)
  MIC: 0.8 µg/mL (≈ 4.67 µM)
[1]; [16]
  MIC: 0.6 µg/mL (≈ 3.51 µM)
[1]; strain A, 48 hours, 37° C., anaerobic chamber, lowest concentration with no detectable growth
  MIC: 1.2 µg/mL (≈ 7.01 µM)
[2]; Bacteroides fragilis, NCTC9343, 48 h
  MBC: 1.2 µg/mL (≈ 7.01 µM)
[2]; Bacteroides fragilis, NCTC9343, 48 h, strain B
  MIC: 1.5 µg/mL (≈ 8.76 µM)
[2]; strain B
  MIC: 0.8 µg/mL (≈ 4.67 µM)
[3]
  MBC: 1.2 µg/mL (≈ 7.01 µM)
  MIC: 0.8 µg/mL (≈ 4.67 µM)
[4]
  MBC: 10 µg/mL (≈ 58.4 µM)
[5]
  MBC: 1.2 µg/mL (≈ 7.01 µM)
  MIC: 0.8 µg/mL (≈ 4.67 µM)
[6]
  MBC: 1.2 µg/mL (≈ 7.01 µM)
  MIC: 0.08 µg/mL (≈ 0.467 µM)
[7]
  MBC: 10 µg/mL (≈ 58.4 µM)
  MIC: 10 µg/mL (≈ 58.4 µM)
[8]
  MBC: 10 µg/mL (≈ 58.4 µM)
  MIC: 10 µg/mL (≈ 58.4 µM)
[9]
  MBC: 10 µg/mL (≈ 58.4 µM)
  MIC: 10 µg/mL (≈ 58.4 µM)
[10]
  MBC: 10 µg/mL (≈ 58.4 µM)
[10]; Peptococc. magnus ATCC 29328
  MIC: 0.6 µg/mL (≈ 3.51 µM)
[11]
  MBC: 2.5 µg/mL (≈ 14.6 µM)
[11]; read-out: MIC
  MIC: 1.2 µg/mL (≈ 7.01 µM)
[12]
  MIC: 0.3 µg/mL (≈ 1.75 µM)
[12]; read-out: MBC
  MBC: 0.3 µg/mL (≈ 1.75 µM)
[13]
  MBC: 10 µg/mL (≈ 58.4 µM)
  MIC: 10 µg/mL (≈ 58.4 µM)
[14]
  MBC: 10 µg/mL (≈ 58.4 µM)
  MIC: 10 µg/mL (≈ 58.4 µM)
[15]
  MIC: 0.6 µg/mL (≈ 3.51 µM)
